1 molecule from the NIST ThermoML archive (doi:10.1016/j.jct.2012.03.022) can be followed below.

The term vapor or sublimation pressure denotes the equilibrium pressure above the liquid or solid.

SMILES strings stand for the structures. Numbers after ± are expanded uncertainties.

The conditions of this data set: Liquid, Closed cell (Static) method.

Take `CC(F)F` [1,1-difluoroethane]: the “vapor or sublimation pressure” value runs as follows: (258.15 K) 148.6 ± 1 kPa; (268.15 K) 219.4 ± 1.1 kPa; (278.15 K) 314.1 ± 1.1 kPa; (288.15 K) 437.8 ± 1.2 kPa.
